Source: the NIST ThermoML archive (doi:10.1021/je100825b)
± gives the expanded uncertainty stated by the source.

Conditions: Liquid, Drop weight

## C [methane] + CCCCCCC
298.2 K, 100 kPa
  interfacial tension: 19.8 ± 0.2 mN/m
298.2 K, 2000 kPa
  interfacial tension: 16.5 ± 0.2 mN/m
298.2 K, 3000 kPa
  interfacial tension: 15 ± 0.2 mN/m
298.2 K, 4000 kPa
  interfacial tension: 13.4 ± 0.2 mN/m
298.2 K, 6000 kPa
  interfacial tension: 10.1 ± 0.2 mN/m
298.2 K, 8000 kPa
  interfacial tension: 7.9 ± 0.2 mN/m
298.2 K, 15000 kPa
  interfacial tension: 2.3 ± 0.1 mN/m

## N#N [nitrogen] + CCCCCCC
323.2 K, 100 kPa
  interfacial tension: 17.6 ± 0.2 mN/m
323.2 K, 3400 kPa
  interfacial tension: 16 ± 0.2 mN/m
323.2 K, 6900 kPa
  interfacial tension: 13.7 ± 0.2 mN/m
323.2 K, 10400 kPa
  interfacial tension: 12 ± 0.1 mN/m

## CCCCCCC [heptane] + O=C=O
323 K, 100 kPa
  interfacial tension: 16.8 ± 0.2 mN/m
323 K, 3100 kPa
  interfacial tension: 10.1 ± 0.2 mN/m
323 K, 4500 kPa
  interfacial tension: 7.8 ± 0.2 mN/m
323 K, 5500 kPa
  interfacial tension: 5.7 ± 0.1 mN/m
323 K, 7900 kPa
  interfacial tension: 1.5 ± 0.08 mN/m
323 K, 9300 kPa
  interfacial tension: 0.11 ± 0.03 mN/m
353 K, 100 kPa
  interfacial tension: 13.6 ± 0.2 mN/m
353 K, 2100 kPa
  interfacial tension: 10.6 ± 0.2 mN/m
353 K, 4000 kPa
  interfacial tension: 7.8 ± 0.2 mN/m
353 K, 5600 kPa
  interfacial tension: 6.1 ± 0.2 mN/m
353 K, 6900 kPa
  interfacial tension: 4.7 ± 0.1 mN/m
353 K, 8500 kPa
  interfacial tension: 2.9 ± 0.1 mN/m
353 K, 10300 kPa
  interfacial tension: 0.8 ± 0.05 mN/m
353 K, 11200 kPa
  interfacial tension: 0.2 ± 0.02 mN/m
